Format in all cases: cell-based
One test deals with B. fragilis AMP S. Briefly: MIC by agar-dilution technique, Diagnostic Sensitivity Test, B. fragilis AMP S. The conditions noted are these: Bacteroides fragilis, inoculum 10^4 CFU/spot. From the text: (§1) The following results were obtained for representative compounds on a standard in vitro test system using Diagnostic Sensitivity Test. The antibacterial activity is described in terms of the minimum inhibitory concentration (MIC) determined by the agar-dilution technique with an inoculum size of 10^4 CFU/spot.

The next test deals with P. morganii I + 001. The test can be described thus: MIC by agar-dilution technique, Diagnostic Sensitivity Test, P. morganii I + 001. The conditions noted are these: Morganella morganii, inoculum 10^4 CFU/spot.
Excerpt: as §1

The test system of test [1] is Enterobacter cloacae P99-. Briefly: MIC by agar-dilution technique, Diagnostic Sensitivity Test, Enterobacter cloacae P99-.
Excerpt: as §1

The test system of the next test is E. coli DCO. The test can be described thus: MIC by agar-dilution technique, Diagnostic Sensitivity Test, E. coli DCO. As to conditions: Escherichia coli, inoculum 10^4 CFU/spot.
Excerpt: as §1

The subject of a further test is S. aureus Oxford. The test can be described thus: MIC by agar-dilution technique, Diagnostic Sensitivity Test, S. aureus Oxford. As to conditions: Staphylococcus aureus, inoculum 10^4 CFU/spot.
Excerpt: as §1

Values after ≈ are worked out from the molar mass of the structure shown.

Consider `C[C@@H](O)[C@H]1C(=O)N2C(C(=O)O)=C(S[C@@H]3CN[C@H](C(=O)Nc4csc(C(=O)O)c4)C3)[C@H](C)[C@H]12` [Example 1, (1R,5S,6S,8R,2'S,4'S)-2-(2-(2-Carboxy-4-thienylcarbamoyl)pyrrolidin-4-ylthio)-6-(1-hydroxyethyl)-1-methylcarbapenem-3-carboxylic acid], for which the MIC with B. fragilis AMP S came to 125 ng/mL (≈ 0.26 µM); with P. morganii I + 001, 8 ng/mL; in test [1], 8 ng/mL (≈ 0.0166 µM); in the test with E. coli DCO it was 8 ng/mL (≈ 0.0166 µM); in the test on S. aureus Oxford it was 125 ng/mL (≈ 0.26 µM).

Source of the values: patent US5519015A, “Carbapenem antibiotic compounds” (Zeneca Limited, priority 1992, dated 1996).
